{"source": "patent US20060069132A1", "about": "“Azolecarboxamide herbicides” (priority 2004, published 2006)", "key": {"barnyardgrass (ECHCG)": {"system": "barnyardgrass (ECHCG)", "test": "Test J Compounds 2 and 6 alone and in combination with other herbicides, foliage spray", "format": "in vivo, Echinochloa crus-galli", "design": "key to ECHCG Obsd.: percentage herbicidal effect (observed)", "details": "for ECHCG Obsd.: applied alone", "excerpt": "(§1) Colby's Equation was used to calculate the expected additive herbicidal effect of the mixtures of Compound 6 with Harmony® Extra (i.e. a 2:1 mixture by weight of thifensulfuron-methyl and tribenuron-methyl). Colby's Equation (Colby, S. R. “Calculating Synergistic and Antagonistic Responses of Herbicide Combinations,” Weeds, 15(1), pp 20-22 (1967)) calculates the expected additive effect of herbicidal mixtures, and for two active ingredients is of the form: Pa+b=Pa+Pb−(PaPb/100) wherein • Pa+b is the percentage effect of the mixture expected from additive contribution of the individual components, • Pa is the observed percentage effect of the first active ingredient at the same use rate as in the mixture, and • Pb is the observed percentage effect of the second active ingredient at the same use rate as in the mixture.\nSeeds of test plants consisting of barnyardgrass (ECHCG; Echinochloa crus-galli (L.) Beauv.), blackgrass (ALOMY; Alopecurus myosuroides Huds.), Surinam grass (BRADC; Urochloa decumbens (Staph) R. D. Webster, previously named Brachiaria decumbens Stapf), cocklebur (XANST, Xanthium strumarium L.), corn (ZEAMD, Zea mays L. cv. ‘Pioneer 33G26’), large crabgrass (DIGSA, Digitaria sanguinalis (L.) Scop.), giant foxtail (SETFA, Setaria faberi Herrm.), lambsquarters (CHEAL, Chenopodium album L.), morningglory (IPOCO, Ipomoea coccinea L.), pigweed (AMARE, Amaranthus retroflexus L.), velvetleaf (ABUTH, Abutilon theophrasti Medik.) wheat (TRZAS, Triticum aestivum L. cv. ‘Recital’) and wild oat (AVEFA, Avena fatua L.) were planted in Redi-Earth® planting medium (Scotts Company, 14111 Scottslawn Road, Marysville, Ohio 43041) comprising spaghnum peat moss and vermiculite. Seeds of small-seeded species were planted about 1 cm deep; larger seeds were planted about 2.5 cm deep. Plants were grown in a greenhouse using supplemental lighting to maintain a photoperiod of about 14 hours; daytime and nighttime temperatures were about 24-30° C. and 22-25° C., respectively. […] Also listed in Table J are the expected effects for the mixtures calculated using Colby's Equation."}, "wheat cv. Recital": {"system": "wheat cv. Recital", "test": "Test I safening of Compound 6 by Harmony Extra Herbicide, pre-/postemergence", "format": "in vivo, Triticum aestivum", "protocol": "This test evaluated the safening of Compound 6 on barley (Hordeum vulgare L.) cv. ‘Boone’ and wheat (Triticum aestivum L.) cv. ‘Recital’ by Harmony® Extra Herbicide, which comprises 50 wt % thifensulfuron-methyl and 25 wt % tribenuron-methyl. Barley and wheat seeds were planted in pots containing a pasteurized blend of Matapeake soil and sand. For postemergence testing the plants were grown 10 days so the barley seedlings were at the 2-leaf stage and the wheat seedlings were at the 2-3-leaf stage at time of treatment. Preemergence treatments were applied the day after the seeds were planted. Treatments were applied by spraying Compound 6 and/or […] in a non-phytotoxic solvent mixture, using flat fan nozzle and a spray volume of 280 L/ha. The treatments were triply replicated and the results subsequently averaged. The pots were placed on a greenhouse bench using a complete randomized block design except for the first replicate, which was unrandomized. The plants were grown in the greenhouse and watered as needed with a dilute nutrient solution containing 200 ppm of N. Illumination was daylight supplemented by artificial sources to maintain a photoperiod of 14 hours. The temperature was maintained at 23±2° C. during the day and 17±2° C. at night. The effects of the treatments were rated 25 days after preemergence treatment and 15 days after postemergence treatment. The plant response was visually rated in comparison to untreated controls using a scale of 0 to 100, with 0 representing no effect and 100 representing complete plant death.\nas §1\nThe results and additive effects expected from Colby's Equation for the preemergence test are listed in Table I1, and the results and additive effects expected from Colby's Equation for the postemergence test are listed in Table I2."}, "wheat cv. Retical": {"system": "wheat cv. Retical", "test": "Test H safening on wheat by naphthalic anhydride seed treatment, pre-/postemergence", "format": "in vivo, Triticum aestivum", "design": "key to Response of wheat, Without naphthalic anhydride seed treatment: 0 = no effect, 100 = complete plant death, vs untreated control", "protocol": "This test evaluated the safening of compounds of the invention on wheat (Triticum aestivumL.) cv. ‘Retical’ by seed treatment with naphthalic anhydride. Some of the wheat seed was treated with napthalic anhydride as a 1% by weight seed dressing. The wheat seed were planted in pots containing pasteurized Sassafras sandy loam soil. For postemergence testing the plants were grown 8 days to the 2-leaf stage at time of treatment. Preemergence treatments were applied the same day that the seeds were planted. Treatments were applied by spraying the test compounds formulated in a non-phytotoxic solvent mixture, using a flat fan nozzle and a spray volume of 280 L/ha. The preemergence treatments were triply replicated and the results subsequently averaged. The pots were placed on a growth chamber bench using a complete randomized block design for the preemergence test except for the first replicate, which was unrandomized. The plants were grown in the growth chamber and watered as needed with a dilute nutrient solution containing 200 ppm of N. Illumination was provided by fluorescent lamps giving 200-300 μE/m^2/S of photosynthetically active radiation over a 14-hour photoperiod. The temperature was maintained at 23±2° C. during the day and 17±2° C. at night. The effects of the treatments were rated 25 days after preemergence treatment and 14 days after postemergence treatment. The plant response was visually rated in comparison to untreated controls using a scale of 0 to 100, with 0 representing no effect and 100 representing complete plant death. The results for the compounds tested preemergence are listed in Table H1, and the results for the compounds tested postemergence are listed in Table H2."}}}
{"molecule": "CCn1nc(C(C)(C)C)cc1C(=O)Nc1cc(C(=O)N(C)C)ccc1F", "note": "[Compound 6, N-[5-[(dimethylamino)carbonyl]-2-fluorophenyl]-3-(1,1-dimethylethyl)-1-ethyl-1H-pyrazole-5-carboxamide]", "values": [{"measurement": "ECHCG Obsd.", "setting": "barnyardgrass (ECHCG); 62 g a.i./ha", "result": 17}, {"measurement": "ECHCG Obsd.", "setting": "barnyardgrass (ECHCG); 125 g a.i./ha", "result": 63}, {"measurement": "observed effect of mixture compared with additive effect expected from Colby's Equation", "setting": "barnyardgrass (ECHCG); mixture with terbacil, barnyardgrass, foliage spray, 15 days after treatment", "result": "greater than additive"}, {"measurement": "Wheat Observed effect", "setting": "wheat cv. Recital; postemergence, Compound 6 16, thifensulfuron-methyl 0, tribenuron-methyl 0 g a.i./ha", "result": 58}, {"measurement": "Wheat Observed effect", "setting": "wheat cv. Recital; postemergence, Compound 6 31, thifensulfuron-methyl 0, tribenuron-methyl 0 g a.i./ha", "result": 65}, {"measurement": "Wheat Observed effect", "setting": "wheat cv. Recital; preemergence, Compound 6 16, thifensulfuron-methyl 0, tribenuron-methyl 0 g a.i./ha", "result": 45}, {"measurement": "Wheat Observed effect", "setting": "wheat cv. Recital; preemergence, Compound 6 31, thifensulfuron-methyl 0, tribenuron-methyl 0 g a.i./ha", "result": 67}, {"measurement": "Response of wheat, With 1% naphthalic anhydride seed treatment", "setting": "wheat cv. Retical; postemergence, 62 g a.i./ha", "result": 65}, {"measurement": "Response of wheat, Without naphthalic anhydride seed treatment", "setting": "wheat cv. Retical; postemergence, 62 g a.i./ha", "result": 75}, {"measurement": "Response of wheat, With 1% naphthalic anhydride seed treatment", "setting": "wheat cv. Retical; postemergence, 125 g a.i./ha", "result": 75}, {"measurement": "Response of wheat, Without naphthalic anhydride seed treatment", "setting": "wheat cv. Retical; postemergence, 125 g a.i./ha", "result": 75}, {"measurement": "Response of wheat, With 1% naphthalic anhydride seed treatment", "setting": "wheat cv. Retical; preemergence, 62 g a.i./ha", "result": 77}, {"measurement": "Response of wheat, Without naphthalic anhydride seed treatment", "setting": "wheat cv. Retical; preemergence, 62 g a.i./ha", "result": 99}, {"measurement": "Response of wheat, With 1% naphthalic anhydride seed treatment", "setting": "wheat cv. Retical; preemergence, 125 g a.i./ha", "result": 100}, {"measurement": "Response of wheat, Without naphthalic anhydride seed treatment", "setting": "wheat cv. Retical; preemergence, 125 g a.i./ha", "result": 100}]}
